Data from ChEMBL document CHEMBL4041467, “Synthesis of novel 15-membered 8a-azahomoerythromycin A acylides: Consequences of structural modification at the C-3 and C-6 position on antibacterial activity” (Eur J Med Chem, 2017).
In brackets after ≈: the same amount, converted by molar mass.

How the values were obtained:
[1] = Protein binding in mouse plasma at 1 ug/ml by LC-MS/MS analysis; assay type: ADME, cell-free; settings: read-out: PPB (converted)
Streptococcus pyogenes [2] = experiment: Antibacterial activity against erythromycin susceptible Streptococcus pyogenes by agar microdilution method; assay type: functional
[3] = Clearance in Han Wistar rat at 10 mg/kg, iv by LC-MS/MS analysis; assay type: ADME, organism-based; settings: in vivo
[4] = Tmax in Han Wistar rat at 20 mg/kg, po by LC-MS/MS analysis; assay type: ADME, organism-based; settings: in vivo
Streptococcus pyogenes [5] = experiment: Antibacterial activity against constitutively macrolide/lincosamide/streptogramin B-resistant Streptococcus pyogenes by agar microdilution method; assay type: functional
[6] = AUC(0 to infinity) in Han Wistar rat at 20 mg/kg, po by LC-MS/MS analysis; assay type: ADME, organism-based; design: dose 20 mg/kg, time infinity, route oral; settings: in vivo
Haemophilus influenzae = experiment: Antibacterial activity against Haemophilus influenzae by agar microdilution method; assay type: functional
Streptococcus pyogenes [7] = experiment: Antibacterial activity against Mef-mediated macrolide efflux resistant Streptococcus pyogenes by agar microdilution method; assay type: functional
Streptococcus pneumoniae [8] = experiment: Antibacterial activity against erythromycin susceptible Streptococcus pneumoniae infected in mouse assessed as increase in mouse survival administered orally 1 hr post infection; assay type: functional; settings: po
[9] = AUC(0 to infinity) in Han Wistar rat at 10 mg/kg, iv by LC-MS/MS analysis; assay type: ADME, organism-based; design: dose 10 mg/kg, route intravenous, time infinity; settings: in vivo
[10] = Oral bioavailability in Han Wistar rat at 20 mg/kg by LC-MS/MS analysis; assay type: ADME, organism-based; settings: in vivo
[11] = Protein binding in human plasma at 1 ug/ml by LC-MS/MS analysis; assay type: ADME, cell-free; settings: read-out: PPB (converted)
[12] = Cmax in Han Wistar rat at 20 mg/kg, po by LC-MS/MS analysis; assay type: ADME, organism-based; design: dose 20 mg/kg, route oral; settings: in vivo
Staphylococcus aureus [13] = experiment: Antibacterial activity against constitutively macrolide/lincosamide/streptogramin B-resistant Staphylococcus aureus by agar microdilution method; assay type: functional
[14] = Cmax in Han Wistar rat at 10 mg/kg, iv by LC-MS/MS analysis; assay type: ADME, organism-based; design: dose 10 mg/kg, route intravenous; settings: in vivo
[15] = Terminal half life in Han Wistar rat at 10 mg/kg, iv by LC-MS/MS analysis; assay type: ADME, organism-based; settings: in vivo, read-out: beta t1/2 (converted)
Streptococcus pneumoniae [16] = experiment: Antibacterial activity against constitutively macrolide/lincosamide/streptogramin B-resistant Streptococcus pneumoniae by agar microdilution method; assay type: functional
[17] = Fraction unbound in Han Wistar rat plasma at 10 mg/kg, iv by LC-MS/MS analysis; assay type: ADME, organism-based
Staphylococcus aureus [18] = experiment: Antibacterial activity against inducibly macrolide/lincosamide/streptogramin B-resistant Staphylococcus aureus by agar microdilution method; assay type: functional
Staphylococcus aureus [19] = experiment: Antibacterial activity against erythromycin susceptible Staphylococcus aureus infected in mouse assessed as increase in mouse survival administered orally 1 hr post infection; assay type: functional; settings: po
Streptococcus pneumoniae [20] = experiment: Antibacterial activity against erythromycin susceptible Streptococcus pneumoniae by agar microdilution method; assay type: functional
[21] = Protein binding in rat plasma at 1 ug/ml by LC-MS/MS analysis; assay type: ADME, cell-free; settings: read-out: PPB (converted)
[22] = Volume of distribution at steady state in Han Wistar rat at 10 mg/kg, iv by LC-MS/MS analysis; assay type: ADME, organism-based; settings: in vivo, read-out: Vdss
Streptococcus pneumoniae [23] = experiment: Antibacterial activity against Mef-mediated macrolide efflux resistant Streptococcus pneumoniae by agar microdilution method; assay type: functional
Staphylococcus aureus [24] = experiment: Antibacterial activity against erythromycin susceptible Staphylococcus aureus by agar microdilution method; assay type: functional
Rattus norvegicus = experiment: Unbound clearance in Han Wistar rat at 10 mg/kg, iv by LC-MS/MS analysis; assay type: ADME, organism-based; settings: in vivo
Streptococcus pneumoniae [25] = experiment: Potency index, ratio of clarithromycin ED50 to compound ED50 for erythromycin susceptible Streptococcus pneumoniae infected in mouse; assay type: functional
Staphylococcus aureus [26] = experiment: Potency index, ratio of clarithromycin ED50 to compound ED50 for erythromycin susceptible Staphylococcus aureus infected in mouse; assay type: functional
[27] = Metabolic stability in rat liver microsomes assessed as parent compound remaining at 1 uM after 60 mins in presence of NADP by LC-MS/MS analysis; assay type: ADME, microsome; settings: read-out: Stability
[28] = Metabolic stability in mouse liver microsomes assessed as parent compound remaining at 1 uM after 60 mins in presence of NADP by LC-MS/MS analysis; assay type: ADME, microsome; settings: read-out: Stability
[29] = Metabolic stability in human liver microsomes assessed as parent compound remaining at 1 uM after 60 mins in presence of NADP by LC-MS/MS analysis; assay type: ADME, microsome; settings: read-out: Stability

Row | SMILES | MIC (Streptococcus pyogenes [2]) | MIC (Streptococcus pyogenes [5]) | MIC (Haemophilus influenzae) | MIC (Streptococcus pyogenes [7]) | MIC (Staphylococcus aureus [13]) | MIC (Streptococcus pneumoniae [16]) | MIC (Staphylococcus aureus [18]) | MIC (Streptococcus pneumoniae [20]) | MIC (Streptococcus pneumoniae [23]) | MIC (Staphylococcus aureus [24]) | also measured
1 | CC[C@H]1OC(=O)[C@H](C)C(=O)[C@H](C)[C@@H](O[C@@H]2O[C@H](C)C[C@H](N(C)C)[C@H]2O)[C@](C)(OC)C[C@@H](C)C(=O)[C@H](C)[C@H]2N(CCCCn3cnc(-c4cccnc4)c3)C(=O)O[C@]12C [TELITHROMYCIN] | ≤ 0.06 µg/mL | 4 µg/mL (≈ 4.93 µM) | 2 µg/mL (≈ 2.46 µM) | 0.25 µg/mL (≈ 0.308 µM) | > 64 µg/mL | ≤ 0.125 µg/mL | 0.25 µg/mL (≈ 0.308 µM) | ≤ 0.06 µg/mL | ≤ 0.125 µg/mL | ≤ 0.125 µg/mL | fraction unbound at 1 ug/ml [1]: 0.41; clearance [3]: 42.5 mL/min/kg; Tmax [4]: 2.3 h; AUC(0-inf) [6]: 2730 ng·h/mL; ED50 (Streptococcus pneumoniae [8]): 7.2 mg/kg; AUC(0-inf) [9]: 3950 ng·h/mL; bioavailability [10]: 33%; fraction unbound at 1 ug/ml [11]: 0.5; Cmax [12]: 340 ng/mL; Cmax [14]: 1850 ng/mL; half-life [15]: 1.7 h; fraction unbound [17]: 0.56; ED50 (Staphylococcus aureus [19]): 5 mg/kg; fraction unbound at 1 ug/ml [21]: 0.56; Vd [22]: 5.6 L/kg; CL free (Rattus norvegicus): 75.9 mL/min/kg
2 | CC[C@H]1OC(=O)[C@H](C)[C@@H](OC(=O)CCNCCNc2cc3c(=O)c(C(=O)O)cn(C4CC4)c3cc2Cl)[C@H](C)[C@@H](O[C@@H]2O[C@H](C)C[C@H](N(C)C)[C@H]2O)[C@](C)(OC/C=C/c2ccc3ncccc3c2)C[C@@H](C)NC(=O)[C@H](C)[C@@H](O)[C@]1(C)O | ≤ 0.125 µg/mL | 4 µg/mL (≈ 3.53 µM) | 4 µg/mL (≈ 3.53 µM) | 0.25 µg/mL (≈ 0.221 µM) | > 64 µg/mL |  | 0.25 µg/mL (≈ 0.221 µM) | ≤ 0.125 µg/mL | 0.25 µg/mL (≈ 0.221 µM) | 0.25 µg/mL (≈ 0.221 µM) | Ratio ED50 (Streptococcus pneumoniae [25]): 2; ED50 (Streptococcus pneumoniae [8]): 15.1 mg/kg; Ratio ED50 (Staphylococcus aureus [26]): 2; ED50 (Staphylococcus aureus [19]): 12.8 mg/kg
3 | C=CCO[C@]1(C)C[C@@H](C)NC(=O)[C@H](C)[C@@H](O)[C@](C)(O)[C@@H](CC)OC(=O)[C@H](C)[C@@H](OC(=O)CCN2CCN(C(=O)c3ccco3)CC2)[C@H](C)[C@H]1O[C@@H]1O[C@H](C)C[C@H](N(C)C)[C@H]1O | 0.5 µg/mL (≈ 0.578 µM) | > 64 µg/mL | 8 µg/mL (≈ 9.25 µM) | 4 µg/mL (≈ 4.62 µM) | > 64 µg/mL | > 64 µg/mL | 2 µg/mL (≈ 2.31 µM) | 0.5 µg/mL (≈ 0.578 µM) | 4 µg/mL (≈ 4.62 µM) | 2 µg/mL (≈ 2.31 µM) | 
4 | C=CCO[C@]1(C)C[C@@H](C)NC(=O)[C@H](C)[C@@H](O)[C@](C)(O)[C@@H](CC)OC(=O)[C@H](C)[C@@H](OC(=O)C=C)[C@H](C)[C@H]1O[C@@H]1O[C@H](C)C[C@H](N(C)C)[C@H]1O | 16 µg/mL (≈ 23.4 µM) | > 64 µg/mL | > 64 µg/mL | > 64 µg/mL | > 64 µg/mL | > 64 µg/mL | > 64 µg/mL | 16 µg/mL (≈ 23.4 µM) | > 64 µg/mL | 32 µg/mL (≈ 46.7 µM) | 
5 | CCOc1ccc2ccc(=O)oc2c1 [ETHOXYCOUMARIN] |  |  |  |  |  |  |  |  |  |  | remaining at 1 h, 1 µM [27]: 57%; remaining at 1 h, 1 µM [28]: 30%; remaining at 1 h, 1 µM [29]: 18%
6 | C=CCO[C@]1(C)C[C@@H](C)NC(=O)[C@H](C)[C@@H](OC(=O)C=C)[C@](C)(O)[C@@H](CC)OC(=O)[C@H](C)[C@@H](OC(=O)C=C)[C@H](C)[C@H]1O[C@@H]1O[C@H](C)C[C@H](N(C)C)[C@H]1O | 32 µg/mL (≈ 43.3 µM) | > 64 µg/mL | > 64 µg/mL | > 64 µg/mL | > 64 µg/mL | > 64 µg/mL | > 64 µg/mL | 32 µg/mL (≈ 43.3 µM) | > 64 µg/mL | 32 µg/mL (≈ 43.3 µM) | 
7 | C=CCO[C@]1(C)C[C@@H](C)NC(=O)[C@H](C)[C@@H](O)[C@](C)(O)[C@@H](CC)OC(=O)[C@H](C)[C@@H](OC(=O)CCN2CCN(c3cc4c(=O)c(C(=O)O)cn(C5CC5)c4cc3Cl)CC2)[C@H](C)[C@H]1O[C@@H]1O[C@H](C)C[C@H](N(C)C)[C@H]1O | ≤ 0.125 µg/mL | 8 µg/mL (≈ 7.75 µM) | 4 µg/mL (≈ 3.87 µM) | 1 µg/mL (≈ 0.968 µM) | > 64 µg/mL | 4 µg/mL (≈ 3.87 µM) | 0.25 µg/mL (≈ 0.242 µM) | ≤ 0.125 µg/mL | 0.5 µg/mL (≈ 0.484 µM) | ≤ 0.125 µg/mL | 
8 | C=CCO[C@]1(C)C[C@@H](C)NC(=O)[C@H](C)[C@@H](O)[C@](C)(O)[C@@H](CC)OC(=O)[C@H](C)[C@@H](OC(=O)CCN(C)CCc2ccccc2)[C@H](C)[C@H]1O[C@@H]1O[C@H](C)C[C@H](N(C)C)[C@H]1O | 0.5 µg/mL (≈ 0.61 µM) | > 64 µg/mL | 16 µg/mL (≈ 19.5 µM) | 8 µg/mL (≈ 9.76 µM) | > 64 µg/mL | > 64 µg/mL | 4 µg/mL (≈ 4.88 µM) | 0.25 µg/mL (≈ 0.305 µM) | 2 µg/mL (≈ 2.44 µM) | 4 µg/mL (≈ 4.88 µM) | 
